In ChEMBL document CHEMBL1201862, “PubChem BioAssay data set” (2004):
Values belong to the molecule of their own block, whether it stands above or below them. The source made the active and inactive calls.

How the values were obtained:
Caspase-3 = target: T1, Caspase-3 (Homo sapiens, UniProt P42574); assay: SAR Analysis of small molecule inhibitors of Sentrin-specific proteases (SENPs) using a Caspase-3 Selectivity assay. [Related pubchem assays (depositor defined):AID2540, AID2599, AID434973, AID489001]; type: functional
T1 sequence (P42574 whole entry): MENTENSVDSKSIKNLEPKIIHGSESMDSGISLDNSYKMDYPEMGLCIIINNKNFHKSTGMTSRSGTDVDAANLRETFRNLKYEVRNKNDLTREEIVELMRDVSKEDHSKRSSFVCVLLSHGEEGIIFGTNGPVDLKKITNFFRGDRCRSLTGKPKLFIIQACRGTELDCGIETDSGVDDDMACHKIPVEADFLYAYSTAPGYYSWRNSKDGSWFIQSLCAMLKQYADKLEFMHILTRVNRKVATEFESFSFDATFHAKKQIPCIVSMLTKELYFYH

[1] = target: T2, Sentrin-specific protease 6 (Homo sapiens, UniProt Q9GZR1); assay: SAR Analysis of small molecule inhibitors of Sentrin-specific protease 6 (SENP6) using a Luminescent assay. [Related pubchem assays (depositor defined):AID2582, AID2599]; type: functional
T2 sequence (Q9GZR1 whole entry): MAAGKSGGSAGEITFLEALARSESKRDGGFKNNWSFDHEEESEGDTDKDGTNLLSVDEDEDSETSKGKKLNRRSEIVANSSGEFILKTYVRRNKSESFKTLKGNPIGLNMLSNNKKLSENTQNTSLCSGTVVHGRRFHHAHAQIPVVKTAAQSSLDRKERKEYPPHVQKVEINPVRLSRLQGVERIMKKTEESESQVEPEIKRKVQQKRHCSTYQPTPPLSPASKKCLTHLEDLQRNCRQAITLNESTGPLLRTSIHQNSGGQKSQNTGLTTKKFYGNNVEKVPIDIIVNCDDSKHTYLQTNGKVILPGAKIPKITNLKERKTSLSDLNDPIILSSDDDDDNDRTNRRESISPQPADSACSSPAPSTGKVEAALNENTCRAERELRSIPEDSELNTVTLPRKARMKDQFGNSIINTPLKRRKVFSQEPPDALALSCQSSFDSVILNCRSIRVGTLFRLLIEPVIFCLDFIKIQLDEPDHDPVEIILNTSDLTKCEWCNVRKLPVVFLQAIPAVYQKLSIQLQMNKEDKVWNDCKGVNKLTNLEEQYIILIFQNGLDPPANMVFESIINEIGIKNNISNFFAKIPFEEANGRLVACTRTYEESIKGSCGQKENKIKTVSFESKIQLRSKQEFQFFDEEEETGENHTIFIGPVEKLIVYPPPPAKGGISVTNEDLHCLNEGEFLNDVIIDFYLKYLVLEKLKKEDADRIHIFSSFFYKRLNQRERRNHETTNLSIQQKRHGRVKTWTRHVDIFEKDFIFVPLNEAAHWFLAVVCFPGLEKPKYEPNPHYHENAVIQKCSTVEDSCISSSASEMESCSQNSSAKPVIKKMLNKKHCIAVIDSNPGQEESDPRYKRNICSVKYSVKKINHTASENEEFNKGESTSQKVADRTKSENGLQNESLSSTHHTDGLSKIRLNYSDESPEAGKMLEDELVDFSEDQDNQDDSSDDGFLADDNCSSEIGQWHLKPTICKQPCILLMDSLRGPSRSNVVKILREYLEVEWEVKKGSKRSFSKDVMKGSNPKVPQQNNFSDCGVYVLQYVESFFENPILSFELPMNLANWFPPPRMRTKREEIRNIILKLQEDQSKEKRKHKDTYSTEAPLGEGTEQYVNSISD

[2] = target: T3, Sentrin-specific protease 7 (Homo sapiens, UniProt Q9BQF6); assay: inhibition of human SENP7 cleavage activity – biochemical, luminescence, SAR follow-up (AID 504497); type: functional
T3 sequence (Q9BQF6 whole entry): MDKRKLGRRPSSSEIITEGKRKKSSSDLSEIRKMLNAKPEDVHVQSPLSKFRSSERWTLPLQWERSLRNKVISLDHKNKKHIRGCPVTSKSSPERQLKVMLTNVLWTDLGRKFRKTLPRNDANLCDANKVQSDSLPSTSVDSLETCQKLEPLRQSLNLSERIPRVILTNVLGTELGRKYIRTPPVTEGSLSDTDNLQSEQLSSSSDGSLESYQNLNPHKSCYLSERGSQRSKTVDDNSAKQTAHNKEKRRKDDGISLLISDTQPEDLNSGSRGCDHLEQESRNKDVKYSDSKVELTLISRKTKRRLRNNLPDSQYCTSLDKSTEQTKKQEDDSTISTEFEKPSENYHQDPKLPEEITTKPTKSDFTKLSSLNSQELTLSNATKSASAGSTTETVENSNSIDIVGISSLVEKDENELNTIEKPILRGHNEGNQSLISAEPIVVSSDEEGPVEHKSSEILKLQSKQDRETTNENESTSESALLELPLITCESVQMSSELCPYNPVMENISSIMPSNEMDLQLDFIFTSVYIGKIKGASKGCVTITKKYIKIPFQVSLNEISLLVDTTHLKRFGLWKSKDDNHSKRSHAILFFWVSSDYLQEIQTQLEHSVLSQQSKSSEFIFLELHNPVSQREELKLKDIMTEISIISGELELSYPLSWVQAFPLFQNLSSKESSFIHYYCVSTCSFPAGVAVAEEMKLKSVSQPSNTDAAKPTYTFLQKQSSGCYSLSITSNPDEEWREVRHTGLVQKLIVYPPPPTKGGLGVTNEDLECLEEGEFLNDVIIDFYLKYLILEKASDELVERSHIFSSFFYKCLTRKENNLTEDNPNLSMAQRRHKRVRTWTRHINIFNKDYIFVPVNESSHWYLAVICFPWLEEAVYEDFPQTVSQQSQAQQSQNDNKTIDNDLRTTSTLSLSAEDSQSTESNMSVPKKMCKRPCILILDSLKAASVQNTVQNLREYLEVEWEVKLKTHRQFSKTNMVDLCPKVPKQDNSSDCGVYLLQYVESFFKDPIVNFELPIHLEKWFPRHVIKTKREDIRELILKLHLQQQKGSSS

[3] = target: T4, Sentrin-specific protease 8 (Homo sapiens, UniProt Q96LD8); assay: inhibition of human SENP8 cleavage activity – biochemical, luminescence, SAR follow-up (AID 504501); type: functional
T4 sequence (Q96LD8 whole entry): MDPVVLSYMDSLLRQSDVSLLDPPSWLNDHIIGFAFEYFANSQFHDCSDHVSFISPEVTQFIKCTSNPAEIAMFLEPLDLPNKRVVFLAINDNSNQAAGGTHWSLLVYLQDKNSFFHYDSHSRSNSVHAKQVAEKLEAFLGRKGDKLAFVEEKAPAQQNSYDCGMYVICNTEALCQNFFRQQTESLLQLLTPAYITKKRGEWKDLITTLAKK

[4] = target: Potassium voltage-gated channel subfamily KQT member 2 (Rattus norvegicus, UniProt O88943); assay: blockers of KCNQ2 channel current – cell-based, automated electrophysiology, set II, rat KCNQ2, dose response (AID 588637); type: functional
Potassium voltage-gated channel subfamily KQT member 2, sequence (O88943 whole entry): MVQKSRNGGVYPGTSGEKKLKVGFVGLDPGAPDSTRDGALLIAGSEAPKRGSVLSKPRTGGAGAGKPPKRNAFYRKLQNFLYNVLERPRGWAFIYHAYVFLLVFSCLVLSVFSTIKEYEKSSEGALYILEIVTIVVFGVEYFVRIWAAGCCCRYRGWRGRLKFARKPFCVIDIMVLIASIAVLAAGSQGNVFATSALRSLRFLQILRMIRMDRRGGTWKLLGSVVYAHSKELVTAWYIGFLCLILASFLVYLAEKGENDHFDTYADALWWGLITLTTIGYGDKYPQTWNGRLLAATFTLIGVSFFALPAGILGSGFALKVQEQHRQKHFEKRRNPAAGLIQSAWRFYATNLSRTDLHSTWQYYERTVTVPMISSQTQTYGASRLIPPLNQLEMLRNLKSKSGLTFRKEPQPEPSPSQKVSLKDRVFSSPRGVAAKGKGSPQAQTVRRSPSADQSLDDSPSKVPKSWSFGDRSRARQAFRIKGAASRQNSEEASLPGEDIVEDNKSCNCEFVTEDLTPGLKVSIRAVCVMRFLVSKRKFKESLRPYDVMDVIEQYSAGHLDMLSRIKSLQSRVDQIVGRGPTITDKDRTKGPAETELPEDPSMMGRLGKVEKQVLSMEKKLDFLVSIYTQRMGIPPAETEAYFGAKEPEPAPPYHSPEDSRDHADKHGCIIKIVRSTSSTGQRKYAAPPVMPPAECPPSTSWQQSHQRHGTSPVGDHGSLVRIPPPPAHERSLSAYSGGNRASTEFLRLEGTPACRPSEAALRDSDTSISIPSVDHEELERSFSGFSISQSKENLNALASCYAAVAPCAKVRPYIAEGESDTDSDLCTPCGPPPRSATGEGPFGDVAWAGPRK

[5] = DRD fibroblast viability loss – cell-based, non-viral oncogenic, luminescence, dose response (AID 1934); type: functional; settings: Homo sapiens
BJ [6] = assay: cells; type: functional, cell-based; settings: Homo sapiens
BJ [7] = assay: growth inhibition of engineered Ras-driven BJ cells – cell-based, alamar blue fluorescence, cherrypicked samples, dose response (AID 2631); type: functional; settings: Homo sapiens;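 further: confirmatory dose-response assay in RAS-dependent BJ fibroblasts engineered with TERT, LT and ST, with cytotoxicity read by fluorescence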
BJ [8] = assay: BJ-TERT-LT-ST fibroblast viability loss – cell-based, RAS-independent, luminescence, dose response (AID 1935); type: functional; settings: Homo sapiens;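 further: BJ fibroblasts immortalized with TERT plus LT and ST oncogenes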
INS1 = assay: INS-1E survival protection against cytokine death – cell-based, luminescence, retest, dose response (AID 449756); type: functional; settings: Rattus norvegicus;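 further: cell death triggered by IL-1 beta plus TNF-alpha plus IFN-gamma mixture; protective hits raise ATP signal compared with cytokine alone wells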
BJ [9] = assay: BJ-TERT fibroblast viability loss – cell-based, RAS-independent, luminescence, dose response (AID 1933); type: functional; settings: Homo sapiens
[10] = target: Mitochondrial peptide methionine sulfoxide reductase (Bos taurus, UniProt P54149); type: functional;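 further: absorbance read-out, biochemical high-throughput dose-response screen for MsrA inhibitors, confirmatory; recombinant bovine MsrA coupled to E. coli TrxB with NADPH and selenocystamine; potency is for inhibitors of MsrA activity on DMSO substrate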
Mitochondrial peptide methionine sulfoxide reductase, sequence (P54149 whole entry): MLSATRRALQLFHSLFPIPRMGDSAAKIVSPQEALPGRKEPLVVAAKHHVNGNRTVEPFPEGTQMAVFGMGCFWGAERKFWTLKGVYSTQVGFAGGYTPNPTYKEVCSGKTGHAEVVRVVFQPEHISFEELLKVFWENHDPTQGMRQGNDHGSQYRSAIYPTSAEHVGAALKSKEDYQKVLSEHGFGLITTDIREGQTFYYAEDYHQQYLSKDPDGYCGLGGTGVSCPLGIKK

Cytochrome P450 2D6 = Cytochrome P450 2D6 (Homo sapiens, UniProt P10635);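 further: CYP2D6 member of a cytochrome P450 panel assay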
Cytochrome P450 2D6, sequence (P10635 whole entry): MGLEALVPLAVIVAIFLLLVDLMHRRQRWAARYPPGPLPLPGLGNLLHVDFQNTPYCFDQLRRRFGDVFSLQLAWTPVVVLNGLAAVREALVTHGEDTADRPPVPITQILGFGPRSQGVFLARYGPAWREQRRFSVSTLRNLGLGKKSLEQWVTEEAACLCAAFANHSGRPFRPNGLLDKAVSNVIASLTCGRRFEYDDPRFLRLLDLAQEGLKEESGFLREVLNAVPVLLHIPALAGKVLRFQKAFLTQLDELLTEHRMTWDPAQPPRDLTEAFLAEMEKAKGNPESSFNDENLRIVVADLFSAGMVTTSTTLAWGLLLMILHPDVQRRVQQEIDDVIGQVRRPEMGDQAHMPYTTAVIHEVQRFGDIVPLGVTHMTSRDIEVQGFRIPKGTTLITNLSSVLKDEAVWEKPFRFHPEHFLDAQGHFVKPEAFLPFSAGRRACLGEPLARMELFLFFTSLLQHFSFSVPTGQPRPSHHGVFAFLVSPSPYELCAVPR

[11] = target: Dual specificity tyrosine-phosphorylation-regulated kinase 1A (Rattus norvegicus, UniProt Q63470); type: biochemical, Homo sapiens

SMILES: Cc1ccccc1NC(=O)c1ccccc1N(C)S(=O)(=O)c1ccccc1
IC50 [4]: 0.0922 µM (active)

SMILES: CCOc1ccc(/N=C/c2c(C)[nH]n(-c3nc4ccccc4[nH]3)c2=O)cc1
EC50 [5]: 2.52 µM (active) | EC50 (BJ [6]): 2.41 µM (active) | EC50 (BJ [7]): > 133 µM (inactive) | EC50 (BJ [8]): 4.74 µM (inconclusive) | AC50 (INS1): 1.98 µM (active) | EC50 (BJ [9]): 1.22 µM (active)

SMILES: COc1cc2c(cc1O)C[C@H]1c3c(cc(O)c(OC)c3-2)CCN1C [BOLDINE]
AC50 (Cytochrome P450 2D6): 6.31 µM (inconclusive) | IC50 [10]: 47.8 µM (inactive) | AC50 [11]: 4.84 µM (active)

Further lines, with some results ahead:

IC50 (Caspase-3): > 99 µM (inactive) | IC50 [1]: > 99 µM (inactive) | IC50 [2]: > 99 µM (inactive)
SMILES: Cc1cccc(N/N=C/c2cn(Cc3ccccc3)c3ccccc23)c1
IC50 [3]: > 99 µM (inactive)

IC50 [10]: 155 µM (inactive)
SMILES: Cc1cccc(/N=c2\oc3cc(O)ccc3cc2C(N)=O)c1
